Consider 15 compounds from PubChem BioAssay AID248 (DTP/NCI, 2004).

The structures appear in SMILES notation. Where “and” joins values, the source holds several entries; their conditions need not be identical. Equal values may be shown once. Inconclusive results and toxic doses are left out.

For this assay, the system named is L1210 leukemia ip in BDF1 mice, survival T/C. Nature of the assay: NCI In Vivo Anticancer Drug Screen. Data for tumor model L1210 Leukemia (intraperitoneal) in B6D2F1 (BDF1) mice. Conditions: endpoint: mean survival time, higher = longer survival. In outline: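 Tumor cells were implanted, animals were treated, and survival was followed. The result divides the treated measurement by the vehicle-control measurement.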

The mark [1] stands for this setting: dose: 100.0 mg/kg/injection, schedule: Q01DX009 (ip), vehicle: Klucel (hydroxypropylcellulose) (HPC).
Where [2] appears, read: dose: 200.0 mg/kg/injection, schedule: Q01DX009 (ip), vehicle: Klucel (hydroxypropylcellulose) (HPC).
Where [3] appears, read: dose: 400.0 mg/kg/injection, schedule: Q01DX009 (ip), vehicle: Klucel (hydroxypropylcellulose) (HPC).
Setting [4] is: dose: 100.0 mg/kg/injection, schedule: Q01DX001 (ip), vehicle: saline with Tween-80.
[5] abbreviates: dose: 400.0 mg/kg/injection, schedule: Q01DX001 (ip), vehicle: saline with Tween-80.
The mark [6] stands for this setting: dose: 100.0 mg/kg/injection, schedule: Q01DX001 (ip), vehicle: saline.
The mark [7] stands for this setting: dose: 200.0 mg/kg/injection, schedule: Q01DX001 (ip), vehicle: saline.
[8] abbreviates: dose: 400.0 mg/kg/injection, schedule: Q01DX001 (ip), vehicle: saline.
Setting [9] is: dose: 100.0 mg/kg/injection, schedule: Q01DX009 (ip), vehicle: saline with Tween-80.
Setting [10] is: dose: 200.0 mg/kg/injection, schedule: Q01DX009 (ip), vehicle: saline with Tween-80.

As to `CNCC(O)c1ccc(O)cc1` (configuration not stated), the T/C is 96 % of control (dose: 25.0 mg/kg/injection, schedule: Q01DX009 (ip), vehicle: saline); 111 % of control (dose: 25.0 mg/kg/injection, schedule: Q04DX003 (ip), vehicle: saline); 105 % of control (dose: 50.0 mg/kg/injection, schedule: Q01DX009 (ip), vehicle: saline); 101 % of control (dose: 50.0 mg/kg/injection, schedule: Q04DX003 (ip), vehicle: saline); 98 % of control (dose: 100.0 mg/kg/injection, schedule: Q01DX009 (ip), vehicle: saline); 90 % of control and 101 % of control (dose: 100.0 mg/kg/injection, schedule: Q04DX003 (ip), vehicle: saline). Moreover, the T/C reads like this: (dose: 200.0 mg/kg/injection, schedule: Q01DX009 (ip), vehicle: saline) 98 % of control; (dose: 200.0 mg/kg/injection, schedule: Q04DX003 (ip), vehicle: saline) 88 % of control and 104 % of control; (dose: 400.0 mg/kg/injection, schedule: Q01DX009 (ip), vehicle: saline) 100 % of control; (dose: 400.0 mg/kg/injection, schedule: Q04DX003 (ip), vehicle: saline) 98 % of control and 120 % of control.
Take `O=C(Nc1ccccc1C(F)(F)F)OCCOc1ccc(-c2ccccc2)cc1`: the T/C reads like this: under setting [1], 93 % of control; under setting [2], 91 % of control; under setting [3], 91 % of control.
`O=C1NC(=O)/C(=C\c2ccc(OCc3ccccc3)c(OCc3ccccc3)c2)N1`: the T/C reads like this: under setting [4], 88 % of control; under setting [5], 96 % of control.
Consider `O=[N+]([O-])c1ccc(SCN(CSc2ccc([N+](=O)[O-])cc2)Cc2ccccc2)cc1`, for which the T/C is 96 % of control under setting [6], 102 % of control under setting [7] and 90 % of control under setting [8].
As to `C/C=C/P(=O)(c1ccccc1)c1ccccc1`, the T/C (dose: 50.0 mg/kg/injection, schedule: Q01DX001 (ip), vehicle: saline) is 110 % of control; the T/C under setting [6] is 110 % of control; the T/C under setting [7] was 95 % of control; the T/C under setting [8] is 104 % of control.
As for `ONc1ccc(Cl)cc1`, the T/C (dose: 6.25 mg/kg/injection, schedule: Q01DX009 (ip), vehicle: gum acacia) was 105 % of control; the T/C (dose: 12.5 mg/kg/injection, schedule: Q01DX001 (ip), vehicle: gum acacia) was 104 % of control; the T/C (dose: 12.5 mg/kg/injection, schedule: Q01DX009 (ip), vehicle: gum acacia) is 100 % of control; the T/C (dose: 12.5 mg/kg/injection, schedule: Q04DX003 (ip), vehicle: gum acacia) is 100 % of control; the T/C (dose: 25.0 mg/kg/injection, schedule: Q01DX001 (ip), vehicle: gum acacia) was 104 % of control; the T/C (dose: 25.0 mg/kg/injection, schedule: Q04DX003 (ip), vehicle: gum acacia) was 98 % of control. The T/C (dose: 50.0 mg/kg/injection, schedule: Q01DX001 (ip), vehicle: gum acacia) was 100 % of control.
In the case of `O=C(O)c1ccc2c(c1)Sc1ccccc1N2`, the T/C by setting is: (dose: 100.0 mg/kg/injection, schedule: Q04DX003 (ip), vehicle: Klucel (hydroxypropylcellulose) (HPC)) 95 % of control; (dose: 200.0 mg/kg/injection, schedule: Q04DX003 (ip), vehicle: Klucel (hydroxypropylcellulose) (HPC)) 95 % of control.
In the case of `O=C(O)C1=CC2C=C(Cl)C=CC2OC1=O` (configuration not stated), the T/C by setting is: (dose: 5.0 mg/kg/injection, schedule: Q01DX001 (ip), vehicle: saline) 95 % of control; (dose: 10.0 mg/kg/injection, schedule: Q01DX001 (ip), vehicle: saline) 93 % of control; (dose: 20.0 mg/kg/injection, schedule: Q01DX001 (ip), vehicle: saline) 96 % of control; (dose: 40.0 mg/kg/injection, schedule: Q01DX001 (ip), vehicle: saline) 96 % of control; (dose: 80.0 mg/kg/injection, schedule: Q01DX001 (ip), vehicle: saline) 96 % of control; under setting [6], 111 % of control. Further, the T/C under setting [7] is 100 % of control.
As for `[O-]c1on[n+](C2CCCCC2)c1-c1ccccc1`, the T/C is 95 % of control (dose: 100.0 mg/kg/injection, schedule: Q04DX003 (ip), vehicle: saline with Tween-80); 91 % of control (dose: 200.0 mg/kg/injection, schedule: Q04DX003 (ip), vehicle: saline with Tween-80); 101 % of control (dose: 400.0 mg/kg/injection, schedule: Q04DX003 (ip), vehicle: saline with Tween-80).
Regarding `O=C(CNC(=O)Nc1ccc(Cl)c(Cl)c1)N/N=C/C=C/c1ccccc1`, the T/C is 96 % of control (dose: 50.0 mg/kg/injection, schedule: Q01DX009 (ip), vehicle: saline with Tween-80); 96 % of control under setting [9]; 93 % of control under setting [10].
Take `O=Cc1[nH]c(=S)[nH]c(=O)c1Cc1ccc(Br)cc1`: the T/C was 106 % of control under setting [4]; 94 % of control under setting [9]; 98 % of control (dose: 200.0 mg/kg/injection, schedule: Q01DX001 (ip), vehicle: saline with Tween-80); 91 % of control under setting [10]; 98 % of control under setting [5]; 98 % of control (dose: 400.0 mg/kg/injection, schedule: Q01DX009 (ip), vehicle: saline with Tween-80).
Take `O=C(Nc1ccc(N(CCCl)CCCl)cc1)c1ccc([N+](=O)[O-])cc1`: the T/C runs as follows: (dose: 50.0 mg/kg/injection, schedule: Q04DX002 (ip), vehicle: saline) 104 % of control; (dose: 100.0 mg/kg/injection, schedule: Q04DX002 (ip), vehicle: saline) 95 % of control; (dose: 200.0 mg/kg/injection, schedule: Q04DX002 (ip), vehicle: saline) 117 % of control; (dose: 400.0 mg/kg/injection, schedule: Q04DX002 (ip), vehicle: saline) 114 % of control.
As for `N#C/C(=C\c1cccc2ccccc12)c1ccccc1`, the T/C reads like this: (dose: 25.0 mg/kg/injection, schedule: Q04DX002 (ip), vehicle: Klucel (hydroxypropylcellulose) (HPC)) 92 % of control; (dose: 50.0 mg/kg/injection, schedule: Q04DX002 (ip), vehicle: Klucel (hydroxypropylcellulose) (HPC)) 98 % of control; under setting [1], 95 % of control; (dose: 100.0 mg/kg/injection, schedule: Q04DX002 (ip), vehicle: Klucel (hydroxypropylcellulose) (HPC)) 95 % of control; under setting [2], 93 % of control; under setting [3], 100 % of control.
`O=C(NC1CCC(NC(=O)N2CC2)CC1)N1CC1` (configuration not stated): the T/C is 116 % of control (dose: 0.12 mg/kg/injection, schedule: Q01DX009 (ip), vehicle: carboxymethylcellulose (CMC)); 120 % of control (dose: 0.29 mg/kg/injection, schedule: Q01DX009 (ip), vehicle: carboxymethylcellulose (CMC)); 164 % of control (dose: 0.8 mg/kg/injection, schedule: Q01DX009 (ip), vehicle: carboxymethylcellulose (CMC)); 118 % of control (dose: 1.0 mg/kg/injection, schedule: Q01DX009 (ip), vehicle: carboxymethylcellulose (CMC)); 164 % of control (dose: 1.2 mg/kg/injection, schedule: Q01DX009 (ip), vehicle: carboxymethylcellulose (CMC)); 114 % of control and 115 % of control (dose: 1.3 mg/kg/injection, schedule: Q01DX001 (ip), vehicle: carboxymethylcellulose (CMC)). In addition, the T/C runs as follows: (dose: 1.3 mg/kg/injection, schedule: Q01DX009 (ip), vehicle: carboxymethylcellulose (CMC)) 94 % of control; (dose: 1.8 mg/kg/injection, schedule: Q01DX009 (ip), vehicle: carboxymethylcellulose (CMC)) 170 % of control; (dose: 2.0 mg/kg/injection, schedule: Q01DX001 (ip), vehicle: carboxymethylcellulose (CMC)) 112 % of control and 123 % of control; (dose: 2.0 mg/kg/injection, schedule: Q01DX009 (ip), vehicle: carboxymethylcellulose (CMC)) 94 % of control; (dose: 2.5 mg/kg/injection, schedule: Q01DX009 (ip), vehicle: carboxymethylcellulose (CMC)) 120 % of control; (dose: 3.0 mg/kg/injection, schedule: Q01DX001 (ip), vehicle: carboxymethylcellulose (CMC)) 119 % of control. The T/C (dose: 3.37 mg/kg/injection, schedule: Q01DX009 (ip), vehicle: carboxymethylcellulose (CMC)) is 97 % of control and the T/C (dose: 4.5 mg/kg/injection, schedule: Q01DX001 (ip), vehicle: carboxymethylcellulose (CMC)) is 151 % of control.
As for `COc1cc(N)c(OC)nn1`, the T/C was 105 % of control (dose: 100.0 mg/kg/injection, schedule: Q01DX001 (ip), vehicle: other); 96 % of control (dose: 200.0 mg/kg/injection, schedule: Q01DX001 (ip), vehicle: other); 93 % of control (dose: 400.0 mg/kg/injection, schedule: Q01DX001 (ip), vehicle: other).
